# Data taken from PubChem BioAssay (NCI).
#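 The compound was tested at five concentrations on cells cultured in 96-well plates, with a 48-hour exposure period. GI50 marks 50% less growth. The concentration for full growth arrest is given as TGI.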
# What was measured:
# Assay in all cases: NCI tumour cell line growth inhibition, 48 h
# [1] = system: U251 CNS
# [2] = system: MCF7 breast
# [3] = system: TK-10 renal
# [4] = system: HT29 colon
# [5] = system: RXF 393 renal
# [6] = system: IGROV1 ovarian
# [7] = system: OVCAR-4 ovarian
# [8] = system: MDA-MB-231 breast
# [9] = system: UO-31 renal
# [10] = system: OVCAR-3 ovarian
# [11] = system: DU-145 prostate
# [12] = system: COLO 205 colon
# [13] = system: OVCAR-5 ovarian
# [14] = system: SF-539 CNS
# [15] = system: SW-620 colon
# [16] = system: SK-OV-3 ovarian
# [17] = system: UACC-257 melanoma
# [18] = system: MDA-MB-468 breast
# [19] = system: RPMI-8226 leukemia
# [20] = system: NCI/ADR-RES ovarian
# [21] = system: KM12 colon
# [22] = system: MALME-3M melanoma
# [23] = system: HCT-116 colon
# [24] = system: NCI-H460 lung
# [25] = system: 786-0 renal
# [26] = system: NCI-H226 lung
# [27] = system: SK-MEL-2 melanoma
# [28] = system: NCI-H23 lung
# [29] = system: SNB-75 CNS
# [30] = system: SF-295 CNS
# [31] = system: OVCAR-8 ovarian
# [32] = system: MDA-MB-435
# [33] = system: UACC-62 melanoma
# [34] = system: A498 renal
# [35] = system: A549 NSCLC
# [36] = system: SNB-19 CNS
# [37] = system: SN12C renal
# [38] = system: BT-549 breast
# [39] = system: SR leukemia
# [40] = system: EKVX NSCLC
# [41] = system: K-562 leukemia
# [42] = system: HCT-15 colon
# [43] = system: CAKI-1 renal
# [44] = system: HL-60(TB) leukemia
# [45] = system: CCRF-CEM leukemia
# [46] = system: HCC-2998 colon
# [47] = system: PC-3 prostate
# [48] = system: MOLT-4 leukemia
# [49] = system: LOX IMVI melanoma
# [50] = system: HOP-62 NSCLC
# [51] = system: HS 578T breast
# [52] = system: ACHN renal
# [53] = system: T-47D breast
# [54] = system: HOP-92 NSCLC
# [55] = system: NCI-H522 lung
# [56] = system: SF-268 CNS
# [57] = system: SK-MEL-28 melanoma
structure (smiles),measurement,setting,value
COC(=O)C[C@](O)(CCC(C)C)C(=O)O[C@H]1C(OC)=C[C@@]23CCCN2CCc2cc4c(cc2[C@@H]13)OCO4,TGI,[1],> 11.9 µM
same,GI50,[2],1370 nM
same,GI50,[3],> 8 µM
same,TGI,[3],> 37.1 µM
same,GI50,[4],4.69 µM
same,TGI,[4],> 14 µM
same,GI50,[5],2650 nM
same,TGI,[6],> 15.1 µM
same,TGI,[7],> 15.5 µM
same,TGI,[8],> 17.8 µM
same,TGI,[9],> 14.8 µM
same,TGI,[10],> 12.9 µM
same,TGI,[11],> 13.8 µM
same,TGI,[12],> 13.8 µM
same,TGI,[13],> 15.7 µM
same,GI50,[14],3.17 µM
same,TGI,[14],> 8.07 µM
same,TGI,[15],> 16.5 µM
same,TGI,[16],> 31 µM
same,TGI,[17],> 12.7 µM
same,GI50,[18],1800 nM
same,TGI,[18],> 8.31 µM
same,TGI,[19],> 8.64 µM
same,GI50,[20],1500 nM
same,TGI,[20],12 µM
same,TGI,[21],> 15.6 µM
same,GI50,[22],3.62 µM
same,TGI,[22],> 8.33 µM
same,GI50,[23],16.8 µM
same,TGI,[23],> 40.5 µM
same,GI50,[24],1510 nM
same,TGI,[25],> 12.3 µM
same,GI50,[26],2570 nM
same,TGI,[26],> 10.2 µM
same,GI50,[27],1620 nM
same,TGI,[27],8.71 µM
same,TGI,[28],> 9.5 µM
same,TGI,[29],> 11 µM
same,TGI,[30],> 11.2 µM
same,TGI,[31],> 13.8 µM
same,TGI,[32],> 14.4 µM
same,TGI,[33],> 14.6 µM
same,TGI,[34],> 9.75 µM
same,TGI,[35],> 13.6 µM
same,GI50,[36],3.91 µM
same,TGI,[36],> 10.2 µM
same,TGI,[37],> 19.3 µM
same,TGI,[38],> 10.1 µM
same,GI50,[39],17.1 µM
same,TGI,[39],> 40.5 µM
same,TGI,[40],> 16.8 µM
same,GI50,[41],2730 nM
same,TGI,[41],> 40.5 µM
same,GI50,[42],4.08 µM
same,TGI,[42],> 9.64 µM
same,TGI,[43],> 25.1 µM
same,GI50,[44],2400 nM
same,GI50,[45],4.62 µM
same,TGI,[45],> 11.2 µM
same,GI50,[46],2580 nM
same,TGI,[47],> 13.4 µM
same,GI50,[48],10.5 µM
same,TGI,[48],> 40.5 µM
same,GI50,[49],2540 nM
same,TGI,[50],> 21.9 µM
same,TGI,[51],> 11.1 µM
same,GI50,[52],3.59 µM
same,TGI,[52],> 10.9 µM
same,TGI,[53],> 22.9 µM
same,TGI,[54],> 11 µM
same,GI50,[55],3.3 µM
same,TGI,[55],> 8.77 µM
same,TGI,[56],> 19.6 µM
same,TGI,[57],> 10.6 µM
